Consider `CC(/C(=C/[N+](=O)[O-])Nc1ccccc1)c1ccc(Cl)nc1` (stereo not shown) [Compound 45, N-{(Z)-1-[1-(6-chloro-3-pyridinyl)ethyl]-2-nitroethenyl}aniline], for which the melting point (usually the temperature of the solid-liquid transition) fell in the range of 93 to 95 °C.

Source of the values: patent US7557132B2, “Compounds useful as pesticides” (Dow AgroSciences LLC, priority 2002, dated 2009).
